Measured values published in patent US10562912B2 (C&C Research Laboratories, priority 2013, dated 2020).

Tests used:
Format in all cases: cell-based
LNCaP = experiment: Cell growth inhibition assay, prostate cancer cell line LNCaP (medium with 10 ng/mL IL-6); conditions: Homo sapiens, medium supplemented with 10 ng/mL of IL-6, 10,000 cells/well
STAT3 = target: T1, STAT3 (Homo sapiens, UniProt P40763); experiment: STAT3 reporter gene assay (luciferase), LNCaP stable cell line (pSTAT3-TA-luc), IL-6 stimulation
T1 construct: plasmid pSTAT3-TA-luc), which contains a stably operating STAT3 promoter; endogenous in cells
How it was run: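 Cytotoxicity was run on a duplicate plate with CellTiter-Glo, while the other plate gave luciferase read-outs from lysed LNCaP pSTAT3-TA-luc reporter cells. Cells were treated with graded compound concentrations plus IL-6 (10 ng/mL final) for 24–48 h in 3% DCC-FBS medium. Unstimulated and stimulated wells served as negative and positive controls.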

AGS = experiment: Cell growth inhibition assay, stomach cancer cell line AGS; conditions: Homo sapiens; AGS stomach cancer cell line, 3,000 cells/well
Procedure: The inhibitory effects of the compounds of the present invention against the growth of cancer cells were evaluated as shown below. The cancer cell lines including stomach cancer cell line (AGS), breast cancer cell lines (MDA-MB-231, MDA-MB-468, and BT-549), prostate cancer cell lines (LNCaP and DU-145), colon cancer cell line (HCT116), ovarian cancer cell line (SW626), liver cancer cell line (Hep3B), kidney cancer cell line (ACHN), lung cancer cell line (NCI-H23) and blood cancer cell lines (HEL92.1.7 and U266) were cultured under the protocol provided by each supplier. A medium supplemented with 10 ng/mL of IL-6 was used for LNCaP, a prostate cancer cell line, when treated with a drug. Each type of cells to be used in experiments were sub-cultured in a 96-well plate by counting the exact number of cells using Tali™ Image-based Cytometer (Life Technologies). In a 96-well plate, AGS, HCT116, and DU-145 were employed with 3,000 cells/well; NCI-H23, SW626, Hep3B, ACHN, BT-549, MDA-MB-231, HEL92.1.7, and U266 were employed with 5,000 cells/well; and LNCaP and MDA-MB-468 were employed with 10,000 cells/well. The cells were treated with the compounds listed in Examples which were diluted in various concentrations. Upon completion of the compounds treatment, AGS, HCT116, SW626, DU145, NCI-H23, Hep3B, ACHN, BT-549, LNCaP, HEL92.1.7, and U266 cells were cultured at 37° C. under 5% CO2 for from 72 to 96 hours, and MDA-MB-231 and MDA-MB-468 cells were cultured at 37° C. in air for from 72 to 96 hours. Subsequently, the cells were observed under microscope and drug precipitation and particular findings were investigated and recorded. And then, the 96-well plate was placed at room temperature for 30 minutes, added with 20 μL/well of CellTiter-Glo solution (Cat No. G7573, Promega) and shaken for 10 minutes, followed by being subjected to the measurement using PHERAstar™ microplate reader (BMG LABTECH) according to the supplier's general luminometer protocol. Wells where only culture liquid added without cell plating were used as a negative control, whereas wells where culture liquid containing 0.1% DMSO instead of the compounds listed in Examples were used as a positive control.

MDA-MB-231 = experiment: Cell growth inhibition assay, breast cancer cell line MDA-MB-231; conditions: Homo sapiens; MDA-MB-231 breast cancer cell line, 5,000 cells/well
HEL92.1.7 = experiment: Cell growth inhibition assay, blood cancer cell line HEL92.1.7; conditions: Homo sapiens, HEL 92.1.7, HEL92.1.7 blood cancer cell line
How it was run: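 Cells were seeded at 3,000/well (HCT116, DU-145) or 5,000/well (SW626 and the others) and exposed to serial compound dilutions for 72 to 96 h at 37 °C under 5% CO2. Viability was read as CellTiter-Glo luminescence against 0.1% DMSO and cell-free wells.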

DU-145 = experiment: Cell growth inhibition assay, prostate cancer cell line DU-145; conditions: Homo sapiens, DU-145 prostate cancer cell line
How it was run: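 Seed DU-145/HCT116 3,000 cells/well, SW626 5,000 cells/well; add compound dilution series; incubate 72–96 h, 37° C., 5% CO2; microscope check for precipitate; CellTiter-Glo, luminescence. Blank = no cells; vehicle = 0.1% DMSO.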

T1 sequence (P40763 whole entry): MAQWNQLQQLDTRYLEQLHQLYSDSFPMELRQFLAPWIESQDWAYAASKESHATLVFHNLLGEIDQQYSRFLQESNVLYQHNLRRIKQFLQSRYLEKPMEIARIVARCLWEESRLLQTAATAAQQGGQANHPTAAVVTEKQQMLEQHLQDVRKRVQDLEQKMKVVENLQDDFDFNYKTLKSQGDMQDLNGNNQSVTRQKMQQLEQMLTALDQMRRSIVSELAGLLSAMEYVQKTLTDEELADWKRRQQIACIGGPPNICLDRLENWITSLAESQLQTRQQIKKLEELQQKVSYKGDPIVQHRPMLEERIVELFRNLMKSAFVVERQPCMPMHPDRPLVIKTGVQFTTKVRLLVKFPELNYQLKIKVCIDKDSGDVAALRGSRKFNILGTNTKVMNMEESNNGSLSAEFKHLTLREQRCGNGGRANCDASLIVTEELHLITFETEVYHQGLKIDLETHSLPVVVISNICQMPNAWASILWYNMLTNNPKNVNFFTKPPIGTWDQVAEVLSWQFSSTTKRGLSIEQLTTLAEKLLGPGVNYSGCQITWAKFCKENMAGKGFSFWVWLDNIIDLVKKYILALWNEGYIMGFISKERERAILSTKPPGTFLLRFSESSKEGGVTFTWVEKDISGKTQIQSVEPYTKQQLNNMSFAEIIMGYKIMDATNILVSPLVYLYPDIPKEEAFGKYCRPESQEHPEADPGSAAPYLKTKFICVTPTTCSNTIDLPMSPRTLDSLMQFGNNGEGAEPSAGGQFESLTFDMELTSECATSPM

Compound	IC50 (LNCaP)	IC50 (STAT3)	IC50 (AGS)	IC50 (MDA-MB-231)	IC50 (HEL92.1.7)	IC50 (DU-145)
CS(=O)(=O)Nc1ccc2cc(C(=O)Nc3cccc(S(=O)(=O)c4ccc5c(=O)ccoc5c4)c3)[nH]c2c1 [Example 413, 6-(methylsulfonamido)-N-(3-((4-oxo-4H-chromen-7-yl)sulfonyl)phenyl)-1H-indole-2-carboxamide]	> 10 µM	> 10 µM	> 50 µM			
CC(C)(Oc1ccc2cc(C(=O)Nc3cccc(-c4ccc(F)cc4F)c3)[nH]c2c1)C(=O)O [Example 254, 2-((2-((2′,4′-difluoro-[1,1′-biphenyl]-3-yl)carbamoyl)-1H-indol-6-yl)oxy)-2-methylpropanoic acid]	> 10 µM	> 10 µM	> 50 µM			
O=C(Nc1cccc(-c2ccccc2C(F)(F)F)c1)c1cc2ccc(NS(=O)(=O)C(F)(F)F)cc2[nH]1 [Example 268, N-(2′-(trifluoromethyl)-[1,1′-biphenyl]-3-yl)-6-(trifluoromethylsulfonamido)-1H-indole-2-carboxamide]	> 10 µM	> 10 µM	27.1 µM			
CS(=O)(=O)Nc1ccc2c(c1)NC(C(=O)Nc1cccc(-c3ccc(F)cc3C(F)(F)F)c1)C2 (stereo not shown) [Example 262, N-(4′-fluoro-2′-(trifluoromethyl)-[1,1′-biphenyl]-3-yl)-6-(methylsulfonamido)indoline-2-carboxamide]	9.8 µM	5.3 µM	> 50 µM			
Cc1c(C(=O)Nc2cccc(-c3ccccc3C(F)(F)F)c2)[nH]c2ccc([N+](=O)[O-])cc12 [Example 228, 3-methyl-5-nitro-N-(2′-(trifluoromethyl)-[1,1′-biphenyl]-3-yl)-1H-indole-2-carboxamide]	> 10 µM	> 10 µM	41.4 µM			
CS(=O)(=O)Nc1ccc2cc(C(=O)Nc3cccc(-c4ccc(N)cc4C(F)(F)F)c3)[nH]c2c1 [Example 385, N-(4′-amino-2′-(trifluoromethyl)-[1,1′-biphenyl]-3-yl)-6-(methylsulfonamido)-1H-indole-2-carboxamide]	> 10 µM	4.3 µM	26.3 µM			
O=C(O)COc1ccc2cc(C(=O)Nc3cccc(-c4ccc(F)cc4F)c3)[nH]c2c1 [Example 256, 2-((2-((2′,4′-difluoro-[1,1′-biphenyl]-3-yl)carbamoyl)-1H-indol-6-yl)oxy)acetic acid]	> 10 µM	> 10 µM	> 50 µM			
CS(=O)(=O)Nc1ccc2cc(C(=O)Nc3cc(-c4ccc(F)cc4F)ccn3)[nH]c2c1 [Example 279, N-(4-(2,4-difluorophenyl)pyridin-2-yl)-6-(methylsulfonamido)-1H-indole-2-carboxamide]	> 10 µM	6.2 µM	40.7 µM			
CS(=O)(=O)Nc1ccc2cc(C(=O)Nc3cccc(-c4cc(C(N)=O)ccc4C(F)(F)F)c3)[nH]c2c1 [Example 379, N-(5′-carbamoyl-2′-(trifluoromethyl)-[1,1′-biphenyl]-3-yl)-6-(methylsulfonamido)-1H-indole-2-carboxamide]	> 10 µM	> 10 µM	30.1 µM			
NS(=O)(=O)Nc1ccc2cc(C(=O)Nc3cccc(-c4ccccc4C(F)(F)F)c3)[nH]c2c1 [Example 265, 6-(sulfamoylamino)-N-(2′-(trifluoromethyl)-[1,1′-biphenyl]-3-yl)-1H-indole-2-carboxamide]	> 10 µM	4.2 µM	11.4 µM			
COc1ccc(C(F)(F)F)c(-c2cccc(NC(=O)c3cc4ccc([N+](=O)[O-])cc4[nH]3)c2)c1 [Example 282, N-(5′-methoxy-2′-(trifluoromethyl)-[1,1′-biphenyl]-3-yl)-6-nitro-1H-indole-2-carboxamide]	> 10 µM	> 10 µM	23.8 µM			

Compounds with a lower IC50 (LNCaP), results first:

IC50 (LNCaP)	IC50 (STAT3)	IC50 (AGS)	IC50 (MDA-MB-231)	IC50 (HEL92.1.7)	IC50 (DU-145)	Compound
8.6 µM	> 10 µM	21.6 µM				COc1ccc(F)c(-c2ccnc(NC(=O)c3cc4ccc([N+](=O)[O-])cc4[nH]3)c2)c1 [Example 297, N-(4-(2-fluoro-5-methoxyphenyl)pyridin-2-yl)-6-nitro-1H-indole-2-carboxamide]
8 µM	3.4 µM	7.6 µM				CNc1ccc(-c2cccc(NC(=O)c3cc4ccc(NS(C)(=O)=O)cc4[nH]3)c2)c(C(F)(F)F)c1 [Example 386, N-(4′-(methylamino)-2′-(trifluoromethyl)-[1,1′-biphenyl]-3-yl)-6-(methylsulfonamido)-1H-indole-2-carboxamide]
3.5 µM	2.6 µM	16.1 µM				CS(=O)(=O)Nc1ccc2cc(C(=O)Nc3cccc(-c4cnc(Cl)cc4C(F)(F)F)c3)[nH]c2c1 [Example 294, N-(3-(6-chloro-4-(trifluoromethyl)pyridin-3-yl)phenyl)-6-(methylsulfonamido)-1H-indole-2-carboxamide]
3 µM	2.6 µM	25.9 µM				CS(=O)(=O)Nc1ccc2cc(C(=O)Nc3cc(C#N)cc(-c4ccc(F)cc4C(F)(F)F)c3)[nH]c2c1 [Example 315, N-(5-cyano-4′-fluoro-2′-(trifluoromethyl)-[1,1′-biphenyl]-3-yl)-6-(methylsulfonamido)-1H-indole-2-carboxamide]
2.8 µM	3.5 µM	11 µM				CNS(=O)(=O)Nc1ccc2cc(C(=O)Nc3cccc(-c4ccc(F)cc4F)c3)[nH]c2c1 [Example 257, N-(2′,4′-difluoro-[1,1′-biphenyl]-3-yl)-6-((N-methylsulfamoyl)amino)-1H-indole-2-carboxamide]
2.5 µM	0.4 µM		0.11 µM	2.7 µM	0.57 µM	CS(=O)(=O)Nc1ccc2cc(C(=O)Nc3cc(Br)cc(-c4ccc(F)cc4F)c3)[nH]c2c1 [Example 302, N-(5-bromo-2′,4′-difluoro-[1,1′-biphenyl]-3-yl)-6-(methylsulfonamido)-1H-indole-2-carboxamide]
1.01 µM	0.38 µM		0.7 µM	1.7 µM		CS(=O)(=O)Nc1ccc2cc(C(=O)Nc3cccc(-c4ccc(F)cc4F)c3)[nH]c2c1 [Example 270, N-(2′,4′-difluoro-[1,1′-biphenyl]-3-yl)-6-(methylsulfonamido)-1H-indole-2-carboxamide]
0.29 µM	0.12 µM		0.068 µM	1.8 µM	0.25 µM	CC(C)(c1cc(Br)cc(NC(=O)c2cc3ccc(NS(C)(=O)=O)cc3[nH]2)c1)c1ccc(F)cc1F [Example 15, N-(3-bromo-5-(2-(2,4-difluorophenyl)propan-2-yl)phenyl)-6-(methylsulfonamido)-1H-indole-2-carboxamide]
0.072 µM	0.067 µM		0.001 µM	0.24 µM	0.03 µM	CS(=O)(=O)Nc1ccc2sc(C(=O)Nc3cc(Br)cc(-c4ccc(F)cc4F)c3)cc2c1 [Example 305, N-(5-bromo-2′,4′-difluoro-[1,1′-biphenyl]-3-yl)-5-(methylsulfonamido)benzo[b]thiophene-2-carboxamide]
0.067 µM	0.076 µM		0.027 µM	0.28 µM	0.06 µM	CC(C)(c1cc(Br)cc(NC(=O)c2cc3cc(NS(C)(=O)=O)ccc3s2)c1)c1ccc(F)cc1F [Example 35, N-(3-bromo-5-(2-(2,4-difluorophenyl)propan-2-yl)phenyl)-5-(methylsulfonamido)benzo[b]thiophene-2-carboxamide]
0.014 µM	0.15 µM		0.1 µM	0.49 µM		CN(c1ccc2cc(C(=O)Nc3cccc(-c4ccc(F)cc4F)c3)[nH]c2c1)S(C)(=O)=O [Example 344, N-(2′,4′-difluoro-[1,1′-biphenyl]-3-yl)-6-(N-methylmethylsulfonamido)-1H-indole-2-carboxamide]
